Literature values in patent US20050277132A1, “Nematode GS-like sequences” (Divergence Inc., a Delaware corporation, priority 2001, published 2005).

Experiments:
[1] = test system: everted hamster jejunal and ileal segments
[2] = test system: isolated intestinal epithelial cells
[3] = test system: bacterial glutamine synthetase enzymes; details: in vitro and in cell culture
[4] = test system: pathogenic bacteria that are known to secrete glutamine synthetase; details: bacteria that secrete glutamine synthetase into the extracellular milieu
[5] = test system: nonpathogenic bacteria that do not export glutamine synthetase

| Compound | effect on water and electrolyte absorption [1] | cytotoxicity [2] | times more active against certain bacterial glutamine synthetase enzymes than representative mammalian glutamine synthetases [3] [times] | growth of pathogenic bacteria [4] | effect against nonpathogenic bacteria [5] |
| --- | --- | --- | --- | --- | --- |
| CCCCCC[C@@H](O)C/C=C\CCCCCCCC(=O)OC [methyl ester of ricinoleic acid] | ineffective |  |  |  |  |
| CCCCCC[C@@H](O)C/C=C\CCCCCCCC(=O)O [Ricinoleic acid] | inhibitory effect | cytotoxic |  |  |  |
| CS(=N)(=O)CC[C@H](N)C(=O)O (stereo partly drawn) [L-methionine-S-sulfoximine] |  |  | 100 | selectively block growth | no effect |
